{"source": "patent US20230146455A1", "about": "“TREATMENT OF INFLAMMATORY DISEASES WITH PEPTIDES AND PHARMACEUTICAL COMPOSITIONS” (Yuyu Pharma, Inc., priority 2020, published 2023)", "key": {"[1]": {"system": "IL-6 cytokine release in poly I:C stimulated primary human corneal epithelial cells", "assay": "Soluble IL-6 cytokine release in poly I:C stimulated primary human corneal epithelial cells by ELISA (Example 2)", "assay_type": "cell-based", "settings": "30, 10, 1, 0.1, 0.01, 0.001 μM, 25 μg/mL poly I:C, 24 hours", "method": "Assay protocol as shown below was used to determine the significant effect of test compounds. The data was statistically analyzed by one-way ANOVA with a Bonferroni post test comparing all the columns. The significance was represented by the p value.\nSelected YDE peptides (YDE-093, -096, -100, -101, -102, -103, -104, -105, -106 and -107) were evaluated by assessing the soluble IL-6 cytokine release in poly I:C stimulated primary human corneal epithelial cells by ELISA (Biolegend, 430504).\nSpecifically, primary corneal epithelial cells (ATCC, ATCC PCS-700-010) were seeded on a 6-well culture plate containing the Corneal Epithelial Cell Basal Medium (ATCC, ATCC PCS-700-030) in the Corneal Epithelial Cell Growth Kit (ATCC, ATCC PCS-700-040) in an amount of 1.2×10^5 cells per well, which was then cultured for 24 hours under the conditions of 37° C. and 5% CO2. Then, cells were washed with 1×PBS and replaced with serum free medium which was then cultured for 2 hours under the conditions of 37° C. and 5% CO2.\nAfter 2 hours, cells were treated with compounds at 6 differential concentrations (Hinokitiol/YDE peptides at 30, 10, 1, 0.1, 0.01, and 0.001 μM) with the DMSO final 0.5% and then cultured for 1 hour under the conditions of 37° C. and 5% CO2.\nAfter 1 hour, cells were further treated with 25 μg/mL of poly I:C and cultured for 24 hours under the conditions of 37° C. and 5% CO2.\nFollowing incubation, the supernatant was collected for IL-6 levels was assessed by Sandwich ELISA (Enzyme-linked immunosorbent assay) following manufacturer's instructions. The data was statistically analyzed by one-way ANOVA with a Bonferroni post-test comparing all the columns. The significance was represented by the p value."}, "[2]": {"system": "IL-1beta, IL-6, IL-8, MIP-1alpha, MIP-1beta, RANTES, and TNF-alpha release in poly I:C stimulated primary human corneal epithelial cells", "assay": "Panel of soluble proteins release in poly I:C stimulated primary human corneal epithelial cells by Multiplex (Example 4)", "assay_type": "cell-based", "settings": "for IL-6, MFI Mean±SD: Stimulated 14801±407, p<0.05", "text": "To determine the effect of compound by assessing the panel of soluble proteins release in poly I:C stimulated primary human corneal epithelial cells by Multiplex. • Test System: Primary Human Corneal Epithelial cells • Assay Format: 96-well plate format • Method of Detection: Enzyme-linked immunosorbent assay • Assay Controls: Hinokitiol Assay protocol as described below was used to determine the significant effect of test compounds. The data was statistically analyzed by one-way ANOVA with a Bonferroni post test comparing all the columns. The significance was represented by the p value."}, "NF-kB (p65)": {"system": "NF-kB (p65)", "assay": "NF-kB (p65) transcription activity in poly I:C stimulated primary human corneal epithelial cells (Example 5)", "assay_type": "cell-based", "text": "To determine the effect of YDE053 on NF-kB (p65) transcription activity in poly I:C stimulated primary human corneal epithelial cells. Study Plan • Test System: Primary Human Corneal Epithelial cells • Assay Format: 96-well plate format • Method of Detection: Enzyme-linked immunosorbent assay • Assay Controls: Hinokitiol Assay protocol as shown below was used to determine the significant effect of test compounds. The data was statistically analyzed by one-way ANOVA with a Bonferroni post test comparing all the columns. The significance was represented by the p value."}, "[3]": {"system": "IL-6 cytokine release in poly I:C stimulated primary human corneal epithelial cells", "assay": "Soluble IL-6 cytokine release in poly I:C stimulated primary human corneal epithelial cells by ELISA (Example 6)", "assay_type": "cell-based", "text": "To determine the effect of compound by assessing the soluble IL-6 cytokine release in poly I:C stimulated primary human corneal epithelial cells by ELISA. • Test System: Primary Human Corneal Epithelial cells • Assay Format: 96-well plate format • Method of Detection: Enzyme-linked immunosorbent assay • Assay Controls: Hinokitiol Assay protocol as shown below was used to determine the significant effect of test compounds. The data was statistically analyzed by one-way ANOVA with a Bonferroni post test comparing all the columns. The significance was represented by the p value."}, "[4]": {"system": "CIA-induced Rheumatoid Arthritis", "assay": "Mouse CIA-induced Rheumatoid Arthritis Model: body weight, hind paw thickness, clinical score (Example 13)", "assay_type": "in vivo", "settings": "CII-injected mice", "text": "Clinical score: 0—no change; 1—swelling and erythema of the digit; 2—mild swelling and erythema of the limb; 3—gross swelling and erythema of the digit; 4—gross deformity and inability to use the limb."}, "[5]": {"system": "primary corneal epithelial cells", "assay": "Cell proliferation of primary corneal epithelial cells (CellTiter-Glo, Example 3)", "assay_type": "cell-based, human", "method": "• Test System: HCE cells from ATCC. • Assay Format: 96-well plate format • Method of Detection: CellTiter-Glo Luminescent Cell Viability Assay (Pro mega, Cat #G7573) • Assay Controls: Reference compound (hEGF) and untreated cells • Test Samples: 57 • Media: Corneal Epithelial Cell Basal Medium+Cell growth kit components EXPERIMENTAL DESIGN\nSpecifically, 5000 primary corneal epithelial cells/well were seeded in a white opaque 96-well plate and incubated for 24 hrs in a 37° C. incubator supplemented with 5% CO2. After 24 hours, test compounds were treated at 8 different concentrations. Cells treated with compounds were incubated for 48 & 72 hrs at 37° C. in a 5% CO2 incubator. Post appropriate incubation time points, CellTiter-Glo luminescent reagent (Promega, Cat #G7573) was added to the plates and incubated at room temperature for 30 min. Luminescence signal was captured using EnVision^2104® Multilabel reader. Assay controls were reference compound (hEGF) and untreated cells."}}}
{"compound": "CC(C)c1cccc(=O)c(O)c1", "note": "[Hinokitiol]", "values": [{"measurement": "Poly I:C induced IL-6 cytokine release (in words)", "setting": "[1]", "value": "significantly attenuate the Poly I:C stimulated IL-6 cytokine release in a dose dependent manner"}, {"measurement": "Poly I:C stimulated cytokines release (IL-1beta, IL-6, IL-8, MIP-1alpha, MIP-1beta, RANTES, and TNF-alpha) (in words)", "setting": "[2]; Multiplex", "value": "significantly attenuate the Poly I:C stimulated cytokines release"}, {"measurement": "IL-6, MFI Mean±SD", "setting": "[2]; Stimulated + 1 μM", "value": "7004±376"}, {"measurement": "IL-6, MFI Mean±SD", "setting": "[2]; Stimulated + 10 μM", "value": "7011±471"}, {"measurement": "IL-6, MFI Mean±SD", "setting": "[2]; Stimulated + 30 μM", "value": "6759±500"}, {"measurement": "phosphorylation of (p65) NF-kB in Poly I:C stimulated cells (in words)", "setting": "NF-kB (p65)", "value": "significantly attenuate the phosphorylation of (p65) NF-kB in Poly I:C stimulated cells in a dose dependent manner"}, {"measurement": "Poly I:C induced IL-6 cytokine release (in words)", "setting": "[3]", "value": "significantly attenuate the Poly I:C stimulated IL-6 cytokine release in a dose dependent manner"}]}
{"compound": "C[C@@H]1C[C@H]2[C@@H]3CCC4=CC(=O)C=C[C@]4(C)[C@@]3(F)[C@@H](O)C[C@]2(C)[C@@]1(O)C(=O)CO", "note": "[dexamethasone]", "values": [{"measurement": "body weight (in words)", "setting": "[4]", "value": "lead to a decease in body weight in mice"}]}
{"compound": "Human epidermal growth factor (NSDSECPLSHDGYCLHDGVCMYIEALDKYACNCVVGYIGERCQYRDLKWWELR; UniProt P01133 971-1023, looked up) [hEGF]", "values": [{"measurement": "cell proliferation (in words)", "setting": "[5]; 48 hrs or 72 hrs, 30 to 0.01 μM", "value": "Concentration dependent proliferation of primary corneal epithelial cells"}, {"measurement": "maximum proliferation", "setting": "[5]; highest tested concentration of 30 μM, 48 hrs", "value": "~40", "unit": "%"}]}
